# According to patent publication US8586369B2, “Ion channel-forming peptides” (The Regents of the University of California, priority 2007, dated 2013):
# How the values were obtained:
# Type in all cases: biochemical
# [1] = Single-channel conductance in bilayers with positively-charged headgroups (10% DODAP, 90% DiPhyPC); conditions: 20 mM KCl
# Procedure: The conductance of gA-gA and 2-2 in lipid bilayers that contained 10% of a lipid with positively-charged headgroups (here, 1,2-dioleoyl-3-(dimethylamino)propane, DODAP, and 90% DiPhyPC) was measured.
# Formation of planar lipid bilayers: We formed most planar lipid bilayers with the “folding technique.” We used a Teflon film (Eastern Scientific Inc, pore diameter 0.18-0.25 mm) was pretreated on each side with 2.5 μL of 5% hexadecane in pentane and air dried. This film was mounted using vacuum grease (Dow Corning, High vacuum grease) to a custom made Teflon chamber separating two buffer compartments each with a volume capacity of 4 mL. […]
# Ion channel measurements: We performed single channel recordings in “voltage clamp mode” using Ag/AgCl electrodes (Warner Instruments) in each compartment of the bilayer chambers. […] The current traces we used to generate all data that was recorded at applied potentials s 50 mV were filtered at 10 Hz. […]
# [2] = Single-channel conductance in negatively charged planar bilayers (50% POPE, 50% DOPS); conditions: 0.01 M KCl, 0.1 mM HEPES pH 7.4
# Text: The data acquisition boards for both amplifiers were set to a sampling frequency of 15 kHz.
# [3] = Single-channel conductance of homodimeric gA pores in planar lipid bilayers made from DiPhyPC (Example 1); conditions: for Single-channel conductance γ: HEPES pH 7.4, DiPhyPC bilayers, slope of I-V curves; for γ-ratio to gA-gA: pH 7.4, DiPhyPC
# Procedure: Formation of planar lipid bilayers: We formed most planar lipid bilayers with the “folding technique.” We used a Teflon film (Eastern Scientific Inc, pore diameter 0.18-0.25 mm) was pretreated on each side with 2.5 μL of 5% hexadecane in pentane and air dried. This film was mounted using vacuum grease (Dow Corning, High vacuum grease) to a custom made Teflon chamber separating two buffer compartments each with a volume capacity of 4 mL. After adding 1 mL of electrolyte (0.01 M to 1.00 M KCl buffered with HEPES pH 7.4) to each compartment, lipids were spread from a solution in pentane onto the surface of the electrolyte solutions (specifically, 4-6 μL from 25 mg mL-l solution DiPhyPC or from 6.25 mg mL-l each of 50% DOPS and 50% POPE or from 25 mg mL-l DODAP mixed with 25 mg mL-l DiPhyPC in a 1:9 ratio. Three additional milliliters of electrolyte solution were added to each side of the chamber to raise the liquid levels above the aperture. We formed the bilayers from apposition of two monolayers of lipids using the method described by Montal et al. (Proc. Natl. Acad. Sci. U.S.A. 1972, 69, 3561-3566). Briefly, bilayers were obtained by consecutively raising the liquid level in each compartment until the pore was completely covered by electrolyte. If at this point the pore was not closed by a lipid bilayer, then the liquid level in one or both compartments was lowered below the pore level by aspirating electrolyte into a 3 mL syringe, followed by raising the electrolyte solution again.
# Planar lipid bilayers were also made with the “painting technique”. We pretreated each side of a pore in a bilayer cup (Warner Instruments, Delrin perfusion cup, volume 1 mL, pore diameter 250 μm) with ˜2 μL of a 25 mg mL-l solution of DiPhyPC in hexane. After adding recording buffer (0.01 M KCl to 1.00 M KCl buffered with HEPES, pH=7.4) to both compartments of the bilayer setup, we “painted” a solution of 20 mg mL-l DiPhyPC in n-decane over the pore by using a paint brush with a fine tip. We followed the thinning of the decane droplet to form a planar bilayer by monitoring the capacitance of the bilayer. After verifying that bilayers were stable for several minutes (in the range of ±200 mV applied voltage) and that the capacitances were above 80-90 pF, gA was added (4-8 μL from 1 ng mL-l in ethanol), derivatives 1 or 2 (2-10 μL from 100 ng mL-l in ethanol), or derivative 3 (4-10 μL from 100 ng mL-l in ethanol) directly to the bilayer chambers.
# Ion channel measurements: We performed single channel recordings in “voltage clamp mode” using Ag/AgCl electrodes (Warner Instruments) in each compartment of the bilayer chambers. Data acquisition and storage was carried out using custom software in combination with either an EPC-7 patch clamp amplifier from List Medical Electronic (set at a gain of 100 mV pA-1 and a filter cutoff frequency of 3 kHz) or a Geneclamp 500 amplifier from Axon Instruments (with a CV-5B 100GU headstage, set at a gain of 100 mV pA-1 and filter cutoff frequency of 1 kHz). We used the EPC-7 amplifier for most folded bilayers and the Geneclamp 500 amplifier for most painted bilayers. The data acquisition boards for both amplifiers were set to a sampling frequency of 15 kHz. All current traces shown in the figures were further filtered using a digital Gaussian low-pass filter with a cutoff frequency of 30 Hz. The current traces we used to generate all data that was recorded at applied potentials s 50 mV were filtered at 10 Hz.
# We performed the analysis of the single channel current traces by computing histograms of the currents from the original current-time traces with ClampFit 9.2 software from Axon Instruments. From these histograms we extracted the main current values by fitting a Gaussian function to the peaks in the histograms. […] Single channel conductances reported in this paper always refer to the main conductance state (i.e. to the dominant peaks in the current histograms).
# [4] = as above; conditions: 20 mM KCl plus 10 mM KOH
substance,measurement,setting,value
taurinyl gramicidate [compound 2],increase of the relative ratio of conductance of 2-2 to gA-gA versus purely zwitterionic lipids,[1],10%
same,Single-channel conductance γ in negatively charged bilayers,[2],24.4±0.5 pS
same,Single-channel conductance γ,"[3]; 0.01 M KCl, homodimers",4.3 ± 0.3 pS
same,ratio between the conductance of 2-2 and gA-gA,"[3]; 0.02 M KCl, 100 mV applied potential",1.4
same,ratio between the conductance of 2-2 and gA-gA,"[3]; 0.02 M KCl, 200 mV applied potential",1.5
same,conductance compared with gA-gA at pH 7.4,"[3]; 20 mM KCl, DiPhyPC",significantly larger
same,γ at pH 7.4,"[3]; 20 mM KCl, DiPhyPC bilayers, homodimers",5.8 ± 0.1 pS
same,"overall conductance of heterodimeric pore of gA and 2, with 2 at the entrance of the pore","[3]; 0.02 M KCl, DiPhyPC, transmembrane potentials above 100 mV",approximately the same as that of homodimeric pores from 2
same,Single-channel conductance γ,"[3]; 0.10 M KCl, homodimers",12.6 ± 0.4 pS
same,γ-ratio to gA-gA,[3]; 0.10 M KCl,1.2
same,Single-channel conductance γ,"[3]; 1.00 M KCl, homodimers",21.5 ± 0.3 pS
same,γ-ratio to gA-gA,[3]; 1.00 M KCl,1.1
same,"current as share of the estimated maximum, mass transport limited current (3 pA)","[3]; 200 mV applied potential, 0.02 M KCl",~30%
same,difference in single channel conductance compared to gA,[3]; approximately 1.00 M KCl,< 10%
same,conductance compared with gA-gA at pH 12,[4]; DiPhyPC,significantly larger
same,γ at pH 12,"[4]; DiPhyPC bilayers, homodimers",9.8 ± 0.2 pS
